Experimental findings from article PMC11551755, “Structure-based discovery of first inhibitors targeting the helicase activity of human PIF1” (Nucleic Acids Research, 2024) are described below.

Data set [1] has as its target T1, FLhPIF1 (Homo sapiens, UniProt Q9H611).
T1 construct: Full length human PIF1 (FLhPIF1) was expressed and purified as a His-SUMO fusion; His-SUMO (cleaved yes); made in house; 'following similar protocols' to hPIF1HD (ArcticExpress BL21(DE3) E. coli)
T1 sequence (Q9H611 1-641): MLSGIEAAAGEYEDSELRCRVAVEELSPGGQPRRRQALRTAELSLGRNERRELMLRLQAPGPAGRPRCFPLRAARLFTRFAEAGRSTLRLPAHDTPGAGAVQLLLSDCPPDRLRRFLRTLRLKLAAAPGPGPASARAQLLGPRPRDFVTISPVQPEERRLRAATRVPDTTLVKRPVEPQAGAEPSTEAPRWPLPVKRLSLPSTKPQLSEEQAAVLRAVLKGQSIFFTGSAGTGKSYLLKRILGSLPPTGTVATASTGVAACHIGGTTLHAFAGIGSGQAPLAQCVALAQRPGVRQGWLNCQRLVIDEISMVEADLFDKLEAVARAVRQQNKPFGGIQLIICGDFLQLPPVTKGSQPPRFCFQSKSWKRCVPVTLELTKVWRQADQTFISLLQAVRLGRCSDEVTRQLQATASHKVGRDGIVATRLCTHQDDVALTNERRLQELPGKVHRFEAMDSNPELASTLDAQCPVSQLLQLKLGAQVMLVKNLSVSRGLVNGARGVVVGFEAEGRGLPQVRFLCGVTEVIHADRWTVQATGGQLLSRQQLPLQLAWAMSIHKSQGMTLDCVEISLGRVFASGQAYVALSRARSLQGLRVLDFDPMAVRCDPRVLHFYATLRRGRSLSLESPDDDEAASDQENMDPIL
As to the kind of experiment: helicase assay after pre-incubation of SMI with FLhPIF1. The class given is biochemical. Particulars: for IC50: read-out: IC50 for dsDNA unwinding by FLhPIF1 following pre-incubation; for increase in inhibition of FLhPIF1 DNA unwinding after pre-incubation: 3 h pre-incubation, 100 nM FLhPIF1, 100 μM SMI. The procedure:
Helicase activity was assayed using a radiometric strand displacement assay employing a partially single- and double-stranded substrate generated by annealing two oligonucleotides: 5′-(T)55-[…] and 5′-[…], as described previously ([19],[28]). The reaction buffer was 20 mM HEPES–NaOH pH 7.5, 20 mM NaCl, 5.5 mM MgCl2, 5 mM ATP, 1 mM DTT and 0.1 mg/ml BSA. SMIs (100 mM stocks in DMSO) were assayed at up to 2 mM without pre-incubation with FLhPIF1, unless otherwise stated. Reactions (0.1 nM substrate) were incubated at 37°C for 20 min, followed by addition of 0.2 volumes of 120 mM EDTA, 0.6% (w/v) SDS, 60% (v/v) glycerol and 0.1% (w/v) bromophenol blue before resolution of products by polyacrylamide gel electrophoresis (8%, 19:1 acrylamide:bis-acrylamide), 1× TBE (90 mM Tris–borate/2 mM EDTA, pH 8.3 with 0.05% (w/v) SDS buffer). Dried gels were exposed to phosphorimaging plates (Fujifilm) for imaging and quantification (Fuji FLA3000, image gauge V3.3 software). IC50 values were analysed by non-linear regression (variable slope) using GraphPad Prism.
First, we screened inhibitory activity of the SMIs listed in Table 1, following incubation of 100 nM FLhPIF1 with 100 μM SMI for 1 h at 22°C in the absence of substrates (ATP and DNA), before a 1:10 dilution into helicase reactions. […] Next, compounds 2, 5, 6 and 11, along with 4 and 1D were selected for analysis in a pre-incubation time-course (100 nM FLhPIF1, 100 μM SMI), up to 3 h before assaying helicase activity.
(§1) In parallel, IC50 values for inhibition of human UPF1 (hUPF1) helicase activity by the SMIs were also determined under the same conditions. UPF1-like SF1B helicases are the most closely related family of helicases to PIF1, with significant structural and mechanistic similarity ([52]).
(§2) Figure 6. SMI IC50 for dsDNA unwinding determined following pre-incubation. SMIs (0.0078–2 mM SMI) were incubated for 2 h at 22°C (100 nM FLhPIF1 or hUPF1) before dilution (1:10) in the standard helicase assay (0.1 nM DNA substrate). For 1D and 6, structures, electrophoresis of FLhPIF1 reaction product and graphs for IC50 value determination are shown. The graphed data include the activity of SMIs towards hUPF1 and IC50 values obtained are given. See Supplementary Figure S14 for the complete data set. TEXT PRINTED IN THE PICTURE: 1D: IC50 (μM): PIF1: 978 ± 221; IC50 (μM): UPF1: N.D. | 6: IC50 (μM): PIF1: 79.4 ± 16; IC50 (μM): UPF1: 1750 ± 426

The target in data set [2] is T2, human UPF1 (hUPF1) helicase (Homo sapiens, UniProt Q92900).
T2 construct: Full-length human UPF1 helicase was expressed and purified as described previously; made in house
T2 sequence (Q92900 1-1129): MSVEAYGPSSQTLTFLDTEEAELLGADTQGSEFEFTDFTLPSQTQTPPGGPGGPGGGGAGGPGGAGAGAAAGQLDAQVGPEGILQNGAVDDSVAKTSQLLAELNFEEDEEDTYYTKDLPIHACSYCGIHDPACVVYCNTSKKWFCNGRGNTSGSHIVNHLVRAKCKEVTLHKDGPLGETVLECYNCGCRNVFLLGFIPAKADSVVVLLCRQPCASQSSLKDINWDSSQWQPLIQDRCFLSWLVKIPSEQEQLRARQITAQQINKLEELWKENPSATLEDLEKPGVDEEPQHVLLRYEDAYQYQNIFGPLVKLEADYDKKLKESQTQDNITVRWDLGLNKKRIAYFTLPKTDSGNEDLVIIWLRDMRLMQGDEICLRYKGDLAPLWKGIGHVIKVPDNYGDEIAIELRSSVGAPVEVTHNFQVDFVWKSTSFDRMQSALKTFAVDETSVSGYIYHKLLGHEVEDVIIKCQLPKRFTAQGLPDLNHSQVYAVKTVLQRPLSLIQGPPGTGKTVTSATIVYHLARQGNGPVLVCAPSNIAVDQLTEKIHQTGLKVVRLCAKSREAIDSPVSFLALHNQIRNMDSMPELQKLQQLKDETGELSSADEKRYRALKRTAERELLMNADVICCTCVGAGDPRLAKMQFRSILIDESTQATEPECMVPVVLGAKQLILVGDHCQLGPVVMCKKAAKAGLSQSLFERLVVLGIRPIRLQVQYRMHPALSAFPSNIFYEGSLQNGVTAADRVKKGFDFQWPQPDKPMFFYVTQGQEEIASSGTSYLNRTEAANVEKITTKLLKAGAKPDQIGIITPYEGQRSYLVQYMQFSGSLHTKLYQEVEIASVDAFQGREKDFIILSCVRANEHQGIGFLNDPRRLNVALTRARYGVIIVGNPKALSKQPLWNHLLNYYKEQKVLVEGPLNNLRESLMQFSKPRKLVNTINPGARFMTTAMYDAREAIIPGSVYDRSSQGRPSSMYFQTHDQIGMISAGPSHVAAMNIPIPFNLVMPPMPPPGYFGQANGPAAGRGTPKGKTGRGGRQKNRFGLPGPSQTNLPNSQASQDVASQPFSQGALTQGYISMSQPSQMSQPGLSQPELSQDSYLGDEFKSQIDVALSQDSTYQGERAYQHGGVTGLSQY
Kind of data set: helicase assay after pre-incubation of SMI with hUPF1. The class given is biochemical. Particulars: 2 h pre-incubation. How it is done: Full-length human UPF1 helicase was expressed and purified as described previously ([36]).
as §1, §2
Supplementary Figure 14. IC50 DNA unwinding determined following 2 hours pre-incubation. […] The assay procedure and reaction conditions for each helicase were identical (see methods, main manuscript). The figure complements main manuscript Figure 6. […] The reason for this is unclear.

In data set [3] the target is T3, FLhPIF1 (full length human PIF1) (Homo sapiens, UniProt Q9H611).
T3 construct: Full length human PIF1 (FLhPIF1) was expressed and purified as a His-SUMO fusion; His-SUMO (cleaved yes); made in house; 'following similar protocols' to hPIF1HD (ArcticExpress BL21(DE3) E. coli)
T3 sequence (Q9H611 1-641): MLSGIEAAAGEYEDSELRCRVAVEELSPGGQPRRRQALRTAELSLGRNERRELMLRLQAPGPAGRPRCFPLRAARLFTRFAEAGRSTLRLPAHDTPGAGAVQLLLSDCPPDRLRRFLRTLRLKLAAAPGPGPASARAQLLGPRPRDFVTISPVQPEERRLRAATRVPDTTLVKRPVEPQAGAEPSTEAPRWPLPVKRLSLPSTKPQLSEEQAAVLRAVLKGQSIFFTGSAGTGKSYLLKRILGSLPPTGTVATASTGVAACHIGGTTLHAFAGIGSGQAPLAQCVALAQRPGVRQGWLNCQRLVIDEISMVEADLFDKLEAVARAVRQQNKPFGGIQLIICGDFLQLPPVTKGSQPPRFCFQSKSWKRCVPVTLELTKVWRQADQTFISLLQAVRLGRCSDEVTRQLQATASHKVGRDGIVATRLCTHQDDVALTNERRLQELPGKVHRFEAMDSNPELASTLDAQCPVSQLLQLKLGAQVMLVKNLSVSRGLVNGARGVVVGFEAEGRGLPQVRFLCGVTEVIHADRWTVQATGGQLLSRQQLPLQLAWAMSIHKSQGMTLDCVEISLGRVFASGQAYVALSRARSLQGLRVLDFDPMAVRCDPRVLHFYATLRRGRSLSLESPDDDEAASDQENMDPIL
Kind of data set: radiometric strand displacement helicase assay, no pre-incubation. To be noted: for inhibition at 1000 µM: 1 mM single point, gel-based DNA unwinding assay, four repeats (S4 n=3). In kind it is biochemical. How it is done: Helicase activity was assayed using a radiometric strand displacement assay employing a partially single- and double-stranded substrate generated by annealing two oligonucleotides: 5′-(T)55-[…] and 5′-[…], as described previously ([19],[28]). […] SMIs (100 mM stocks in DMSO) were assayed at up to 2 mM without pre-incubation with FLhPIF1, unless otherwise stated. […] Dried gels were exposed to phosphorimaging plates (Fujifilm) for imaging and quantification (Fuji FLA3000, image gauge V3.3 software). IC50 values were analysed by non-linear regression (variable slope) using GraphPad Prism.

Data set [4] has as its target T4, hPIF1HD wild type (Homo sapiens, UniProt Q9H611 206-620).
T4 sequence: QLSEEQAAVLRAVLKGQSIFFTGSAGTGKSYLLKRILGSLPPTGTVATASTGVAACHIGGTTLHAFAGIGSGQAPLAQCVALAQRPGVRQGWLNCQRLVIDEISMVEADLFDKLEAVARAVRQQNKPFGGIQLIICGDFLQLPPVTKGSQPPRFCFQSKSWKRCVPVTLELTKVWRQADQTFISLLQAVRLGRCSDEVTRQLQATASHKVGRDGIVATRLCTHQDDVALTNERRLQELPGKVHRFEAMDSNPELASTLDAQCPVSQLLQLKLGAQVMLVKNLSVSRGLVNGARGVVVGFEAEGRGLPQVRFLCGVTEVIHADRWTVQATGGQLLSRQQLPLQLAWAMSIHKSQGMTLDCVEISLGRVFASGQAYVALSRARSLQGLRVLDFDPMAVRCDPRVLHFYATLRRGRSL
Kind of data set: EMSA; 5 mM AMP-PNP, 5.5 mM MgCl2; 2 nM protein, 0.25 nM DNA; no inhibitor; 20 mM HEPES-NaOH pH 7.5, 20 mM NaCl, 5.5 mM MgCl2, 5 mM AMP-PNP, 1 mM DTT, 0.1 mg/ml BSA; 0.25 nM DNA; binding temperature not stated explicitly (helicase assay conditions 37 C); 5% PAGE, 0.25x TBE. Particulars: protein: recombinant; tags: N-terminal His6 removed; GSRM cloning residues remain; label: 5'-32P; single strand. A general note: Mobility shift assays separate free from complexed probe on a gel.

Setting [5] is: 2 h pre-incubation at 22°C with 100 nM FLhPIF1, then 1:10 dilution into helicase assay.

Read-outs that look alike come from different tables or passages of the source.

As to `CC(=O)Nc1ccc(-c2csc(N)n2)cc1` [Compound 1D], the IC50 in data set [1] (setting [5]) is 978 ± 221 µM; in data set [1] (2 h pre-incubation at 22°C), roughly 1000 µM. Moreover, in data set [1], the “increase in inhibition of FLhPIF1 DNA unwinding after pre-incubation” value is on record as 5–10%. Further, the “inhibition of hUPF1 helicase” value in data set [2] was “minimal inhibition”.

In the case of `COC(=O)c1ccc(-c2csc(N)n2)cc1` [Compound 4], the IC50 in data set [1] (setting [5]) was determined as 300 ± 66 µM; in data set [3] (0.0078–2 mM compound, 10 nM FLhPIF1, 0.1 nM DNA substrate, no pre-incubation, n = 3, read-out: IC50 for inhibition of FLhPIF1 helicase activity), 78 ± 4 µM. The “increase in inhibition of FLhPIF1 DNA unwinding after pre-incubation” value in data set [1] is on record as 5–10%. For the same molecule, the inhibition at 1000 µM in data set [3] was determined as 72.4 ± 4.5%.

Regarding `CC(=O)Nc1ccc(-c2csc(N)n2)cc1-c1cnn(C)c1` [S56], the “inhibition of FLhPIF1 helicase activity in 1 mM single-point screen” value in data set [3] (1 mM) is recorded as “did not display any inhibitory activity at all”. For the same molecule, the inhibition at 1000 µM in data set [3] is -16.9 ± 4.5%.

B1: oligo d(T)55 (ssDNA)
DNA: TTTTTTTTTTTTTTTTTTTTTTTTTTTTTTTTTTTTTTTTTTTTTTTTTTTTTTT
Take B1: the binding result in data set [4] is recorded as “binds”.

Usually IC50 stands for the concentration that inhibits the measured activity by half. Broadly, the inhibition is the relative decrease from the control value, in per cent.
